Laboratory results published in ChEMBL document CHEMBL5375972, “Discovery of Novel 2,3-Dihydro-1H-indene-5-sulfonamide NLRP3 Inflammasome Inhibitors Targeting Colon as a Potential Therapy for Colitis” (J Med Chem, 2023).
Calls of active or inactive are those of the source. The rule behind the calls is not given here.

Experiments:
Assay type in all cases: functional, organism-based
Conditions in all cases: time 9.0 day
Mus musculus [1] = assay: Anti-inflammatory activity in DSS-induced ulcerative colitis C57BL/6 mouse model assessed as increase in body weight at 10 mg/kg,ip administrated for 9 days
Mus musculus [2] = assay: Anti-inflammatory activity in DSS-induced ulcerative colitis C57BL/6 mouse model assessed as reduction in disease activity index (DAI) score at 10 mg/kg,ip administrated for 9 days
Mus musculus [3] = assay: Anti-inflammatory activity in DSS-induced ulcerative colitis C57BL/6 mouse model assessed as increase in colon length at 10 mg/kg,ip administrated for 9 days
Mus musculus [4] = assay: Anti-inflammatory activity in DSS-induced ulcerative colitis C57BL/6 mouse model assessed as reduction in histological colitis severity score at 10 mg/kg,ip administrated for 9 days

CC(C)(O)c1coc(S(=O)(=O)NC(=O)Nc2c3c(cc4c2CCC4)CCC3)c1
Activity (Mus musculus [1]): Active | Activity (Mus musculus [2]): Active | Activity (Mus musculus [3]): Active | Activity (Mus musculus [4]): inactive
